Laboratory results as given in patent US8765098B2, “Star polymers, methods of preparation thereof, and uses thereof” (International Business Machines Corporation, priority 2010, dated 2014).

Assay: Appearance of aqueous mixtures of star polymer, dye alone and loaded star polymers (FIG. 10)
Format: physicochemical
Details: in water, FIG. 10 vials A-D
Method: The solution was added drop-wise to water (0.9 mL) with rapid stirring, causing the water to rapidly and uniformly color from the dye. Excess solid dye material not adsorbed to the star polymer was removed by passing the mixture through a 0.2 micrometer syringe filter, thereby forming a clear and uniformly colored aqueous solution. The further addition of water had no visible effect on the homogeneity of the solution.
FIG. 10 is a photograph of four aqueous mixtures. […] The vial labeled C is an aqueous mixture of 5,10,15,20-(3,5-ditertbutylphenyl)porphyrin (M=2H) (DTBP) alone in water.

In the case of `CC(C)(C)c1cc(-c2c3nc(c(-c4cc(C(C)(C)C)cc(C(C)(C)C)c4)c4ccc([nH]4)c(-c4cc(C(C)(C)C)cc(C(C)(C)C)c4)c4nc(c(-c5cc(C(C)(C)C)cc(C(C)(C)C)c5)c5ccc2[nH]5)C=C4)C=C3)cc(C(C)(C)C)c1` [DTBP, 5,10,15,20-(3,5-ditertbutylphenyl)porphyrin (M=2H)], the “appearance of aqueous solution / mixture” value is reported as “clear and colorless”.
